The NIST ThermoML archive (doi:10.1021/je4003515)

Tests used:
[1] = mn = molality of the nth substance listed, in mol/kg; conditions: 101 kPa, Liquid; for viscosity: Capillary tube (Ostwald / Ubbelohde) method; for mass density: Vibrating tube method
[2] = refractive index (Na D-line) (dimensionless); mn = molality of the nth substance listed, in mol/kg; conditions: 298.15 K, 101 kPa, Liquid, Standard Abbe refractometry

CCO [ethanol] + O
[1]
Conditions | mass density, 293.15 K [kg/m3] | mass density, 298.15 K [kg/m3] | mass density, 303.15 K [kg/m3] | mass density, 308.15 K [kg/m3] | mass density, 313.15 K [kg/m3] | viscosity, 293.15 K [mPa·s] | viscosity, 298.15 K [mPa·s] | viscosity, 303.15 K [mPa·s] | viscosity, 308.15 K [mPa·s] | viscosity, 313.15 K [mPa·s]
m1 = 14 | 936.706 | 933.024 | 929.265 | 925.437 | 921.529 | 2.895 | 2.35 | 1.97 | 1.673 | 1.44
m1 = 16 | 930.583 | 926.799 | 922.942 | 919.015 | 915.018 | 2.9 | 2.363 | 1.988 | 1.69 | 1.456
m1 = 18 | 924.182 | 920.298 | 916.351 | 912.337 | 908.255 | 2.889 | 2.365 | 1.99 | 1.695 | 1.462
m1 = 20 | 918.792 | 914.849 | 910.842 | 906.77 | – | 2.878 | 2.371 | 1.999 | 1.704 | 1.475
m1 = 22 | 913.462 | 909.466 | 905.406 | 901.281 | – | 2.862 | 2.352 | 1.989 | 1.7 | 1.469

[2]
Conditions | refractive index
m1 = 14 | 1.355
m1 = 16 | 1.3564
m1 = 18 | 1.3575
m1 = 20 | 1.3583
m1 = 22 | 1.3585

CCCO [propan-1-ol] + O
[1]
Conditions | mass density, 293.15 K [kg/m3] | mass density, 298.15 K [kg/m3] | mass density, 303.15 K [kg/m3] | mass density, 308.15 K [kg/m3] | mass density, 313.15 K [kg/m3] | viscosity, 293.15 K [mPa·s] | viscosity, 298.15 K [mPa·s] | viscosity, 303.15 K [mPa·s] | viscosity, 308.15 K [mPa·s] | viscosity, 313.15 K [mPa·s]
m1 = 14 | 918.103 | 914.486 | 910.811 | 907.075 | 903.277 | 3.11 | 2.599 | 2.193 | 1.88 | 1.626
m1 = 16 | 911.211 | 907.532 | 903.797 | 899.995 | 896.13 | 3.151 | 2.637 | 2.23 | 1.906 | 1.648
m1 = 18 | 905.417 | 901.687 | 897.899 | 894.048 | 890.133 | 3.176 | 2.663 | 2.255 | 1.93 | 1.67
m1 = 20 | 899.512 | 895.724 | 891.885 | 887.984 | 884.02 | 3.178 | 2.671 | 2.263 | 1.938 | 1.679
m1 = 22 | 895.376 | 891.557 | 887.682 | 883.751 | 879.756 | – | – | – | – | –

[2]
Conditions | refractive index
m1 = 14 | 1.364
m1 = 16 | 1.3654
m1 = 18 | 1.367
m1 = 20 | 1.368
m1 = 22 | 1.3695
